Patent US20050228041A1, “Protective and therapeutic uses for tocotrienols” (priority 2003, published 2005)
“Also recorded” adds a separate entry of the source.

Tests used:
[1] = system: primary cardiac fibroblatsts (CF) isolated from adult mouse ventricle; assay: Cardiac fibroblast death induced by arachidonic acid + buthionine sulfoximine (phase contrast imaging); format: cell-based; conditions: arachidonic acid 50 microM + BSO, 250 nM tocotrienol, 24 h, 5% O2
Procedure: Assays were performed using primary cardiac fibroblatsts (CF) isolated from adult (5-6 week old) mouse ventricle. Cells were cultured under 5% O2 conditions. Five days after isolation cells were treated with arachidonic acid (50 microM)+buthionine sulfoximine in the presence or absence of 250 nM tocotrienol for 24h. Phase contrast imaging was performed using a Zeiss live cell imaging microscope.
Referring to FIG. 8, isolated cardiac fibroblasts cells were treated five days after isolation with arachidonic acid (AA)(50 microM)±buthionine sulfoximine (BS)) in the presence or absence of 250 nM tocotrienol (T3) for 24 hours. Phase contrast imaging was performed using a Zeiss live cell imaging microscope.

TTP knock-out mice = assay: Fertility of tocopherol transport protein (TTP) knock-out mice; conditions: mouse, in vivo
From the text: The uptake and transport of dietary or pharmaceutically supplemented tocopherol from the gut to various parts of the body is directed by TTP. In order to understand and distinguish the important roles of tocopherols and tocotrienols in mammals, knock out mice have been produced in which expression of TTP has been ablated. Interruption of TTP results in loss of fertility in these mice which make it impossible to breed and thus maintain the line for further study.

alphaTTP = molecular target: T1, alphaTTP (Rattus norvegicus, UniProt P41034); conditions: competition with alpha-[3H]tocopherol; FEBS Lett 1997; cited from earlier work
T1 sequence (P41034 1-278): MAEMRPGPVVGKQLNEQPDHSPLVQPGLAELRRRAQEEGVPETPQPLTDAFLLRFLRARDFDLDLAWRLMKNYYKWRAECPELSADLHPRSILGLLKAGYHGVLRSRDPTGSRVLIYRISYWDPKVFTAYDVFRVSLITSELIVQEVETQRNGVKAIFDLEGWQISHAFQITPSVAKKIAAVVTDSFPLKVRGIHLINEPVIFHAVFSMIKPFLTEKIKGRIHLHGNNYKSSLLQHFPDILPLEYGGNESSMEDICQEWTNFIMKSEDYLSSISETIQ

[2] = molecular target: T2, hydroxy-3 methylglutaryl coenzyme A reductase (Homo sapiens, UniProt P04035); conditions: micromolar amounts; Pearce et al.; cited from earlier work
T2 sequence (P04035 1-888): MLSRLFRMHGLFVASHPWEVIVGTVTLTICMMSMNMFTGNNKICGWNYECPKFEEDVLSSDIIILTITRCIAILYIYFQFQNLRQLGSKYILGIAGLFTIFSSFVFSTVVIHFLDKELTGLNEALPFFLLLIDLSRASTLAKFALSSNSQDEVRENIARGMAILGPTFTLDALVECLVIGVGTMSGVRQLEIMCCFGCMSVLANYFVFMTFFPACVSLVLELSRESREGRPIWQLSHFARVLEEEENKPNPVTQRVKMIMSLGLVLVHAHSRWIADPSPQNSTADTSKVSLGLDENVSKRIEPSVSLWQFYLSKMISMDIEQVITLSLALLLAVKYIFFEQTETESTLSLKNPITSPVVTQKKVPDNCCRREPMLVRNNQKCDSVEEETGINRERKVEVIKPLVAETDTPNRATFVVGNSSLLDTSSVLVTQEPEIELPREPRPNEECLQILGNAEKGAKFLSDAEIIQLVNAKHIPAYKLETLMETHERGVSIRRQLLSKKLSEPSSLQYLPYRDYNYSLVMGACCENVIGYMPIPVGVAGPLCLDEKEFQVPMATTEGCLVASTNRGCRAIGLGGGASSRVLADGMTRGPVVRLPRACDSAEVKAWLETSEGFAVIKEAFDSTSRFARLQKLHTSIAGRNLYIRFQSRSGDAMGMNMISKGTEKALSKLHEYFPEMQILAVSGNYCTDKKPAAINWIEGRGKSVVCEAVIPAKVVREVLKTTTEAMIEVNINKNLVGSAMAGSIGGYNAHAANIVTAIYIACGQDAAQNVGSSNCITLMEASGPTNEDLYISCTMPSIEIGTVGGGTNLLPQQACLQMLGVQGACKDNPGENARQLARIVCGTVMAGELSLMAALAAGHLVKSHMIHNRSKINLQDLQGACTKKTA

HT4 neurons = assay: Glutamate-induced death of HT4 neurons (propidium iodide exclusion flow cytometry, cell counts); format: cell-based, mouse
Procedure: (§1) Referring to FIG. 1, primary rat immature cortical neurons (A-C) or HT4 (D) were either treated or not with α-tocotrienol (as indicated) for 5 min and challenged with either glutamate (10 mM; A); L-homocysteic acid (1 mM; B); or buthionine sulfoximine (0.15 mM; BSO) for 24 h. […] Cells were counted at 12, 24 and 36 h after glutamate challenge.
(§2) First, we tested for the involvement of 12-LOX in the execution of glutamate-induced death in our model. We started by using the 12-LOX specific inhibitor baicalein or BL15. Referring to FIG. 3, HT4 neurons (A) were either treated or not with a-tocotrienol (250 nM) or […] (2.5 μM, 12-lipoxygenase inhibitor) for 5 min and then challenged with glutamate (10 mM). Cell viability was determined using propidium iodide (PI) exclusion flow cytometry assay. PI−=live; PI+=dead. Rat primary immature cortical neurons (B-D) were either treated or not with α-tocotrienol (100 nM) or BL15 (2.5 μM) for 5 min and challenged either with glutamate (10 mM; B); L-homocysteic acid (1 mM; C) or buthionine sulfoximine (0.15 mM; BSO; D) for 24 h. Arachidonic acid, 50 μM for 24h. BL15, Baicalein 5,6,7-trihydroxy-flavone.
(§3) Cell culture. Mouse hippocampal HT4 cells, were grown in Dulbecco's Modified Eagle Medium supplemented with 10% fetal calf serum, penicillin (100 U/ml) and streptomycin (100 μg/ml) at 37° C. in a humidified atmosphere containing 95% air and 5% CO2. HT4 cells were provided by Dr. D. E. Koshland Jr. (University of California at Berkeley) (Sen et al., 2000). Primary cortical neurons. Cells were isolated from the cerebral cortex of rat feti (Sprague Dawley; day 17 of gestation) or mouse feti (C57BL/6 mice, day 14 of gestation) as described (Murphy et al., 1990). For 12-LOX knockout studies, neurons were isolated from the feti of B6.129S2-Alox15^tm1Fun (Jackson Laboratory, […].). After isolation from the brain, cells were counted and seeded in culture plates at a density of 2-3×10^6 cells per 35 mm plate (Murphy et al., 1990). Cells were grown in Minimal Essential Medium (MEM) supplemented with 10% heat-inactivated fetal bovine serum, 40 μM cystine and antibiotics (100 μg/ml streptomycin, 100 units/ml penicillin, 0.25 μg/ml amphotericin). Cultures were maintained at 37° C. in 5% CO2 and 95% air in a humidified incubator. All experiments were carried out 24 h after plating.
(§4) Treatment with neurotoxic agents. Immediately before experiments, culture media was replaced with fresh medium supplemented with serum and antibiotics. Glutamate (10 mM) was added to the media as aqueous solution (Han et al., 1997a; Sen et al., 2000; Tirosh et al., 2000). […] Other agents used to induce death in neuronal cells have been described in the pertinent figure legends.
(§5) Vitamin E treatment. Stock solutions (10^3X of working concentration) of α-tocotrienol was prepared in ethanol. […]
(§6) Determination of cell viability. Viability of HT4 cells was determined using propidium iodide exclusion assay using the flow cytometer as described by us previously (Sen et al., 2000; Tirosh et al., 2000). Because primary neuronal cultures tend to aggregate during flow cytometry, the viability of these cells was assessed by measuring lactate dehydrogenase (LDH) leakage (Han et al., 1997a) from cells to media 24 h following glutamate treatment using in vitro toxicology assay kit from Sigma Chemical Co. (St. Louis, Mo., USA). […]

[3] = system: rat primary cortical neurons; assay: Imaging of glutamate-induced degeneration of rat primary cortical neurons (immunofluorescence, live cell imaging); format: cell-based; conditions: glutamate 10 mM; α-tocotrienol 250 nM or BL15 2.5 μM 5 min before
Procedure: Phase contrast images were collected once every 15 mins for 18 h from 8 h after glutamate treatment.
For immunofluorescence microscopy, primary cultures of rat cortical neurons were plated on 35 mm plates pre-coated with poly-L-lysine. After 24 h, cell were treated with α-tocotrienol or BL15 for 5 minutes and then challenged with glutamate or exposed to glutamate. After 24 h of glutamate exposure, cells were washed thrice in PBS, fixed for 10 minutes at room temperature in 4% paraformaldehyde, and permeabilized with PBS-T (PBS containing 0.2% Triton X-100) for 20 minutes at room temperature. Samples were then rinsed 3× with PBS-T and blocking (2% BSA in PBS-T) was done for 1 h at room temperature. After blocking, samples were incubated overnight at 4° C. with the primary antibody (anti-neurofilament 200 (1:100, Sigma St. Louis, Mo.) or neuronal class III α-tubulin (1:500, Covance Berkeley, Calif.)}. After washing with PBS (3×, 5 min each), the samples were incubated with Alexa Fluor 488 conjugated goat anti-mouse or anti-rabbit (Molecular Probes Eugene, Oreg.) secondary antibody for 45 minutes at room temperature. This was followed by three PBS washes, and mounting in aqueous medium. Fluorescent images were collected using a Zeiss Axiovert 200M microscope. Images were acquired using Axiovision 3.1.
For live cell imaging, primary cultures of rat cortical neurons were plated on 35 mm plates pre-coated with poly-L-lysine. […] Images were collected once every 15 minutes using a specialized phase contrast Zeiss optics suited for imaging cells growing in routine culture plates.

[4] = system: primary rat immature cortical neurons; assay: Neurotoxin-induced loss of viability of primary immature cortical neurons (LDH leakage); format: cell-based; conditions: 24 h
Procedure: as §1, §2, §3, §4, §5, §6

primary neurons = assay: Cellular glutathione (GSH) in glutamate-treated primary neurons (HPLC-coulometric); format: cell-based, rat; conditions: glutamate 10 mM; α-tocotrienol 100 nM or BL15 2.5 μM
Procedure: as §2, with “5,6,7-trihydroxy-flavone. […] B-E: †, lower compared to the corresponding control non-treated group; *, higher compared to the corresponding toxin-treated group. P<0.05.” for “5,6,7-trihydroxy-flavone.”
Glutathione assay. Glutathione (GSH) was detected using a HPLC-coulometric electrode array detector (Coularray Detector—model 5600 with 12 channels; ESA Inc., Chelmsford, Mass.). […] Glutathione was detected at channels set at following potentials: I) 600 mV, II) 700 mV; and II) 800 mV. Signals from channel set at 800 mV were used for quantification (Sen et al., 2002).

**Q.** For tocotrienol, which “cell death induced by AA+BSO” value [1] is on record?
**A.** completely blocked cell death

**Q.** And the “fertility of TTP knock-out mice” value (TTP knock-out mice)?
**A.** reversal of TTP-dependent infertility

**Q.** And the “relative affinity of alpha TTP” value (alphaTTP)?
**A.** relatively low affinity

**Q.** And the “activity of hydroxy-3 methylglutaryl coenzyme A reductase” value [2]?
**A.** suppress the activity

**Q.** And the “protection against glutamate-induced toxicity / loss of cell viability of HT4” value (HT4 neurons; glutamate 10 mM, tocotrienol 100 nM (nM levels) 5 min before)?
**A.** prevented glutamate-induced toxicity

**Q.** And the “proliferation / growth rate of glutamate-treated HT4 cells” value (HT4 neurons; tocotrienol 100 nM (nM levels), cells counted 12, 24 and 36 h after glutamate)?
**A.** proliferate at a rate comparable to cells not treated with glutamate

**Q.** For `O=c1cc(-c2ccccc2)oc2cc(O)c(O)c(O)c12` [BL15, 5,6,7-trihydroxy-flavone, reference compound], which “glutamate-induced degeneration of the neural network and neuronal growth” value [3] is on record?
**A.** protection

**Q.** What about the “protection of primary neurons against toxicity triggered by L-homocysteic acid or BSO” value ([4]; L-homocysteic acid 1 mM or BSO 0.15 mM, BL15 2.5 μM 5 min before) of the same compound?
**A.** protected

**Q.** And the “protection against glutamate-induced death of primary neurons” value ([4]; glutamate 10 mM, α-tocotrienol 100 nM or BL15 2.5 μM 5 min before)?
**A.** protected neurons against glutamate challenge; also recorded: clearly protected

**Q.** And the “cellular glutathione (GSH) in protected glutamate-treated primary neurons” value (primary neurons)?
**A.** loss of cellular glutathione; also recorded: lowered GSH levels

**Q.** And the “protection against glutamate induced death of HT4 cells” value (HT4 neurons; glutamate 10 mM, BL15 2.5 μM 5 min before)?
**A.** clearly protected
